Data reported in US7652038B2, “Methods of reducing angiogenesis” (The Board of Trustees of the Leland Stanford Jr. University, priority 2002, dated 2010).

What was measured:
HMVECs and HUVECs = test: In vitro Matrigel assay (capillary network / tube formation); format: cell-based, human
Protocol: In Vitro Matrigel Assay. Human umbilical vein endothelial cells (HUVEC) and human microvascular endothelial cells (HMVEC; up to 5th passage; Bio Whittaker, Walkersville, Md.) were grown in EGM-MV supplemented with 5% FBS, 0.5 ml hEGF, 0.2 ml hydrocortisone, 2.0 ml BBE, and 0.5 ml GA-1000 (Bio Whittaker). Four-well chamber slides were coated with growth factor enhanced Matrigel (Becton Dickinson, Bedford, Mass.) and equilibrated with basal medium. Kureishi et al. (2000) Nat Med 6:1004-1010. Cells were seeded on top of the gel at a density of 10^3 cells/well in fresh basal medium containing 5% FBS. After two hours, increasing concentrations of mecamylamine (10^−12 to 10^−4 M; Sigma, St. Louis, Mont.) or vehicle were added to the medium. Development of tube formation in the center of each well was investigated at 24, 48, and 72 hours. We studied critical steps in angiogenesis, such as migration and differentiation, using an in vitro model of angiogenesis with ECs forming a network of capillary-like structures. After seeding the cells on growth factor-enriched matrigel, HMVECs and HUVECs, respectively, manifested tube formation within 48 hours in response to control medium.

C57BL/6J mice [1] = test: Disc angiogenesis system; format: in vivo; conditions: for crosssectional area of the disc covered with new vessels (neovascularization of the disc): systemic treatment via osmotic minipumps, median, control 54.9%
Protocol: Disc Angiogenesis System. A disc of polyvinyl alcohol sponge (Rippey, El Dorado Hills, Calif.), covered with nitrocellulose cell-impermeable filters (Millipore, Burlington, Mass.), allows capillaries to grow only through the rim of the disc. The randomized treatment for the 2-week study period was delivered via osmotic minipumps (0.25 μl/hr; Durect, Cupertino, Calif.). Those discs were subcutaneously implanted in the back of 10-week old C57BL/6J mice or in some experiments in the back of α7-nAChR-deficient (B6.129S7-Chrna7^trn1Bay) mice (n=6 per group; Jackson, Bar Harbor, Me.). Two weeks later, mice were anesthetized and infused with space-filling fluorescent microspheres (0.2 μm, Molecular Probes, Eugene, Oreg.) through the left ventricle of the heart. Both the area of the disc covered with perfused vessels and the vessel density were quantified. Heeschen et al. (2001) Nat Med 7:833-837; and Jang et al. (2000) Circulation 102:1414-1419 (3, 10) The α7-nAChR in growing vessels were identified by immunohistochemistry (Santa Cruz Biotechnology, Santa Cruz, Calif.). To verify the specificity of the staining, discs explanted from homozygous α7-nAChR^−/− mice were used as a negative control.
To determine if the nAChR are involved in the native angiogenesic response in vivo, we used the disc angiogenesis system. In the control group, 54.9% (95% CI 46.1-63.6) of the crosssectional area of the disc was covered with new vessels when the disc was removed three weeks after subcutaneous implantation. FIG. 1.

C57BL/6J mice [2] = test: Murine model of hind limb ischemia; format: in vivo; conditions: for median diameter of collateral vessels / number of collateral vessels: ischemic limb; for median diameter of collateral vessels: control 0.12 mm; for number of collateral vessels: control 7.5
Protocol: Murine Model of Hind Limb Ischemia. In 10-week old C57BL/6J mice, the distal end of the external iliac artery and the deep and superficial femoral artery were ligated (n=8 animals per group). Mecamylamine was administered for three weeks by daily intramuscular injection. Serum VEGF levels were determined with a mouse VEGF ELISA kit (R&D System, Minneapolis, Minn.). Capillary density was determined in the adductor and semimembranous muscles. In 10 μm cryostat sections, cut transverse to the mid-belly of the muscle, capillaries were identified by monoclonal antibodies against CD31 (BD PharMingen, San Diego, Calif.) and myocytes were counterstained with eosin (Sigma). Capillary density for each section was determined in ten randomly selected fields and is expressed as a ratio of capillaries to myocytes.
To determine if nAChR play an important role in the setting of angiogenesis in response to ischemia, we employed the murine model of hind limb ischemia. After unilateral ligation of the superficial and deep femoral artery, we administered mecamylamine or vehicle by intramuscular injections into the ischemic hind limb on a daily basis for a period of three weeks. Animals (each group n=8) received 0, 0.05, or 0.5 μg/kg of mecamylamine. […] We achieved similar results when we administered mecamylamine systemically via osmotic minipumps (5.0 μg/kg; 0.24 (95% CI 0.19-0.28); P<0.001).
Accordingly, we identified collaterals by double staining for CD31 (ECs) and α-actin (SMCs) using confocal microscopy. The number of collaterals was quantified on cross-sections by identifying vascular lumen lined by CD31-positive endothelium, that were coated by an actin-positive vascular smooth muscle wall, with vessel diameters of at least 0.02 mm.

CD34+/Flk-1+ cells = test: FACS of endothelial progenitor cells in hind limb ischemia model; format: in vivo, mice; conditions: systemic administration
Protocol: FACS. Fluorescence-activated cell sorting was used to identify the cellular population mobilized by ischemia and ischemia plus mecamylamine, respectively. At each time point (baseline, 3, 7, 14 days), blood was obtained from the right atrium. Bone marrow was isolated from bilateral femurs and tibias of each animal and incubated in HBSS (1% FCS) on ice. Peripheral blood and bone marrow cells were incubated with fluorescent-labeled antibodies and analyzed with a FACS-Vantage flow cytometer (Becton Dickinson, Franklin Lakes, N.J.). FITC-conjugated antibody against mouse CD34 and PE-conjugated antibody against mouse Flk-1 (BD PharMingen, San Diego, Calif.) were used as endothelial lineage markers. The analysis of CD34+ and Flk-1+ cells was performed after gating for monocyte size. Biotinylated antibodies against MAC-1 (BD PharMingen) conjugated to Avidin-Texas Red (BD PharMingen) were used as a monocyte/macrophage lineage marker after gating for monocyte cell size with the exclusion of granulocytes that were marked by Ly-6G GR-1 against mouse conjugated to APC (BD PharMingen). […] Data were analyzed using FloJo software (Becton Dickinson).
Table 1 presents the data, expressed as percentage of endothelial progenitor cells in bone marrow (BM) and peripheral blood (PB) before and after ligation of the femoral artery in the murine model of hind limb ischemia.

[3] = system: Lewis lung carcinoma cells; test: Lewis lung tumor model, subcutaneous; format: in vivo, mice
Protocol: (§1) Lewis Lung Tumor Model. A total of 10^6 Lewis lung carcinoma cells (ATCC, Manassas, Va.) were cultured in RPMI 1640 supplemented with 10% FBS. Cancer cells were subcutaneously injected into each flank or orthotopically introduced into the lung parenchyma via a limited skin incision without thoracotomy of 10-week old C57BL/6J wild type mice. Animals received mecamylamine (3 mg/kg) or vehicle via osmotic mini pumps. Mice injected subcutaneously with tumor cells were checked on a daily basis for the presence of a palpable tumor and tumor growth was measured with a gauge. Tumor size was calculated as the product of length×width×0.5 cm^3. When mice in any group were bearing tumors>1.5 cm^3, the experiment was stopped and all animals sacrificed for histological evaluation. Tumor vessels were identified by infusion of space-filling fluorescent microspheres (0.2 μm; Molecular Probes) via the left ventricle of the heart.
(§2) The previous studies indicate that nAChR play an important role in angiogenesis in a broad spectrum of experimental conditions. To determine if mecamylamine could influence tumor angiogenesis, we used the in vivo Lewis lung cancer model. […] This late decrease in tumor growth in the mecamylamine group corresponded with a reduced vascularization of the tumor tissue. […] In another experiment, we orthotopically implanted Lewis lung cancer cells into the lung parenchyma. Larger tumors in the control group required discontinuation of the experiment after 17 days (tumor volume of 0.62 cm^3 (95% CI 0.37-0.85) versus 0.45 cm^3 (95% CI 0.28-0.66); P<0.001).

[4] = system: Lewis lung carcinoma cells; test: Lewis lung tumor model, orthotopic implantation into lung parenchyma; format: in vivo, mice
Protocol: as §1, §2

Lewis lung cancer cells = test: Cell culture of Lewis lung cancer cells: proliferation and apoptosis during hypoxia; format: cell-based
From the text: In subsequent cell culture experiments, we investigated whether this reduced tumor growth may also be related to a direct anti-proliferative effect of mecamylamine on the cancer cells. […] We also investigated the effects of increasing mecamylamine concentrations on the percentage of cells undergoing apoptosis during hypoxia using flow cytometry.

In the case of `CNC1(C)C2CCC(C2)C1(C)C` (stereo not shown) [mecamylamine], the “reversibility of effect on network formation” value (HMVECs and HUVECs; 10^−6 M, treatment stopped after 36 hours, network-like structures at 72 hours) is reported as “reversible”, the “network formation (tube formation)” value (HMVECs and HUVECs; medium supplemented with 10^−4 to 10^−12 M, growth factor-enriched matrigel) is reported as “network formation was inhibited” and the “angiogenesis in vivo (FIG. 1)” value (C57BL/6J mice [1]; disc angiogenesis system) is reported as “inhibits angiogenesis in vivo”. For the same molecule, the “crosssectional area of the disc covered with new vessels (neovascularization of the disc)” value (C57BL/6J mice [1]) was 14.3%, the “capillary density (angiogenic response)” value (C57BL/6J mice [2]; 0.5 μg/kg daily intramuscular injection into ischemic hind limb, 3 weeks, control 0.45) was 0.26 capillaries/myocyte and the “median diameter of collateral vessels” value (C57BL/6J mice [2]; high dose) was 0.07 mm. The “number of collateral vessels” value (C57BL/6J mice [2]; high dose) was 6.2, the “median diameter of collateral vessels” value (C57BL/6J mice [2]; low dose) was 0.09 mm and the “number of collateral vessels” value (C57BL/6J mice [2]; low dose) was 7.1. The “capillary density compared to control (FIG. 3)” value (C57BL/6J mice [2]; murine model of hind limb ischemia) was “decreased capillary density in a dose-dependent fashion”, the “capillary density (angiogenic response)” value (C57BL/6J mice [2]; systemically via osmotic minipumps, 5.0 μg/kg) was 0.24 capillaries/myocyte and the “number of CD34+/Flk-1+ cells in the bone marrow” value (CD34+/Flk-1+ cells) was “reduced the number of CD34^+/Flk-1^+ cells in the bone marrow”. The “tumor growth (tumor size)” value ([3]; 21-day follow-up, control 1.21) was 0.85 cm^3, the “advanced tumor growth (FIG. 5)” value ([3]; Lewis Lung tumor model) was “significantly less tumor growth” and the “capillary density of tumor tissue” value ([3]; subcutaneous tumor, control 0.82) was 0.56 capillaries/mm^2. The “systemic levels of VEGF” value ([4]; Lewis lung cancer model, control 152.2) was 78.7 pg/mL, the tumor volume ([4]; orthotopic, after 17 days, control 0.62) was 0.45 cm^3 and the tumor vascularization ([4]; orthotopic, control 1.56) was 0.98 capillaries/mm^2. The “cells positive for Annexin V” value (Lewis lung cancer cells; 10^−6 M during hypoxia, control 13%) was 12%, the “percentage of cells undergoing apoptosis during hypoxia” value (Lewis lung cancer cells; increasing concentrations, flow cytometry, versus control group) was “no difference was observed” and the “number of Lewis lung cancer cells (direct anti-proliferative effect)” value (Lewis lung cancer cells; up to 48 hours of treatment) was “did not observe a significant change”.

For `C[N+](C)(C)CCCCCC[N+](C)(C)C` [hexamethonium], the “crosssectional area of the disc covered with new vessels (neovascularization of the disc)” value (C57BL/6J mice [1]) was 11.5%.
